Tests used:
Assay type in all cases: cell-based, mouse
[1] = system: α7 integrin (LacZ reporter in α7βgal+/− myoblasts); test: Myoblast α7+/LacZ integrin FDG assay (Burkin assay in myoblasts, 96-well); settings: for Burkin Assay in Myoblasts, value relative to DMSO / Burkin Assay in Myoblasts, signal relative to DMSO: α7+/LacZ myoblasts, 96-well
[2] = system: α7 integrin (LacZ reporter in α7+/LacZ myotubes); test: Myotube α7 integrin FDG assay (Burkin assay in myotubes, 96-well)
[3] = system: β-galactosidase in CMV-LacZ C2C12 myotubes; test: CMV-LacZ secondary screen in C2C12 myotubes (β-Gal stabilizing assay); settings: for CMV-LACZ in Myotubes (β-galactosidase activity relative to DMSO): CMV-LacZ C2C12 myotubes, 96-well format
Outline: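 β-Gal level was the read-out, measured in a clonal C2C12 line expressing LacZ from a CMV promoter. Dose-response curves used six concentrations, 0.5 μM up to 40 μM, with duplicate points.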

[4] = 5 uM, C2C12 CMV-LacZ myotubes, fold relative to DMSO
[5] = 10 uM, C2C12 CMV-LacZ myotubes, fold relative to DMSO
[6] = 20 uM, C2C12 CMV-LacZ myotubes, fold relative to DMSO
[7] = 40 uM, C2C12 CMV-LacZ myotubes, fold relative to DMSO
[8] = Mus musculus, Myoblast, 48 h, read-out: Burkin Assay in Myoblasts, signal relative to DMSO
[9] = Mus musculus, Myotube, read-out: Burkin Assay in Myotubes, α7 integrin LacZ reporter signal relative to DMSO

Row | Structure (SMILES) | Burkin Assay in Myoblasts, value relative to DMSO ([1]; 0.5 uM) | Burkin Assay in Myoblasts, value relative to DMSO ([1]; 1 uM) | Burkin Assay in Myoblasts, value relative to DMSO ([1]; 5 uM) | Burkin Assay in Myoblasts, value relative to DMSO ([1]; 10 uM) | Burkin Assay in Myoblasts, value relative to DMSO ([1]; 20 uM) | Burkin Assay in Myoblasts, value relative to DMSO ([1]; 40 uM) | Burkin Assay in Myotubes (signal relative to DMSO) ([2]; 0.5 uM) | Burkin Assay in Myotubes (signal relative to DMSO) ([2]; 1 uM) | Burkin Assay in Myotubes (signal relative to DMSO) ([2]; 5 uM) | Burkin Assay in Myotubes (signal relative to DMSO) ([2]; 10 uM) | Burkin Assay in Myotubes (signal relative to DMSO) ([2]; 20 uM) | Burkin Assay in Myotubes (signal relative to DMSO) ([2]; 40 uM) | CMV-LACZ in Myotubes, signal relative to DMSO [3, 4] | CMV-LACZ in Myotubes, signal relative to DMSO [3, 5] | CMV-LACZ in Myotubes, signal relative to DMSO [3, 6] | CMV-LACZ in Myotubes, signal relative to DMSO [3, 7] | also measured
1 | CCNC(=O)CSc1nc(-c2ccc(F)cc2)cs1 [MLS000772194-01] | 1.096 | 1.059 | 1.055 | 1.082 | 1.098 | 1.149 | 0.9782 | 0.9192 | 0.9654 | 1.072 | 0.9904 | 0.7651 | 1.068 | 0.9234 | 1.056 | 0.9968 | –
2 | NC(=O)c1nsc(C(=O)N(c2ccccc2)C(C(=O)NCc2ccc(F)cc2)c2ccc(O)cc2)c1N (centres unmarked) [MLS001219621-01] | 0.8642 | 0.8063 | 0.7249 | 0.7542 | 0.7884 | 0.5423 | 0.9394 | 0.8603 | 0.8883 | 0.8616 | 0.648 | 0.4537 | – | – | – | – | CMV-LACZ in Myotubes (β-galactosidase activity relative to DMSO) ([3]; 5 uM): 0.9491; CMV-LACZ in Myotubes (β-galactosidase activity relative to DMSO) ([3]; 10 uM): 1.063; CMV-LACZ in Myotubes (β-galactosidase activity relative to DMSO) ([3]; 20 uM): 1.132; CMV-LACZ in Myotubes (β-galactosidase activity relative to DMSO) ([3]; 40 uM): 1.29
3 | O=[N+]([O-])c1ccc(N2CCN(c3ccccc3F)CC2)nc1 [MLS001165749-01] | – | – | – | – | – | – | – | – | – | – | – | – | 0.8271 | 0.9284 | 1.024 | 1.038 | Burkin Assay in Myoblasts, signal relative to DMSO ([1]; 0.5 uM): 1.048; Burkin Assay in Myoblasts, signal relative to DMSO ([1]; 1 uM): 1.057; Burkin Assay in Myoblasts, signal relative to DMSO ([1]; 5 uM): 1.034; Burkin Assay in Myoblasts, signal relative to DMSO ([1]; 10 uM): 0.9342; Burkin Assay in Myoblasts, signal relative to DMSO ([1]; 20 uM): 0.9628; Burkin Assay in Myoblasts, signal relative to DMSO ([1]; 40 uM): 0.7711; Burkin Assay in Myotubes, α7 integrin LacZ reporter signal relative to DMSO ([2]; 0.5 uM): 0.9532; Burkin Assay in Myotubes, α7 integrin LacZ reporter signal relative to DMSO ([2]; 1 uM): 1.078; Burkin Assay in Myotubes, α7 integrin LacZ reporter signal relative to DMSO ([2]; 5 uM): 1.1624; Burkin Assay in Myotubes, α7 integrin LacZ reporter signal relative to DMSO ([2]; 10 uM): 1.122; Burkin Assay in Myotubes, α7 integrin LacZ reporter signal relative to DMSO ([2]; 20 uM): 0.7808; Burkin Assay in Myotubes, α7 integrin LacZ reporter signal relative to DMSO ([2]; 40 uM): 0.7342
4 | CCc1c(C2(O)CCCCC2)[nH]c2ncccc12 [MLS002402866-01] | 1.037 | 1.1052 | 0.9113 | 0.9376 | 0.8943 | 0.7689 | 1.09 | 1.258 | 1.181 | 1 | 1.075 | 0.9237 | 0.8739 | 0.7966 | 0.832 | 0.7307 | –
5 | Cc1nc2c([nH]1)OC(N)=C(C#N)C21CCN(Cc2ccccc2)CC1 [MLS000047918-01] | – | – | – | – | – | – | – | – | – | – | – | – | – | – | – | – | fold induction at 0.5 µM [1, 8]: 0.873; fold induction at 1 µM [1, 8]: 0.912; fold induction at 5 µM [1, 8]: 0.948; fold induction at 10 µM [1, 8]: 1; fold induction at 20 µM [1, 8]: 0.803; fold induction at 40 µM [1, 8]: 0.78; fold induction at 0.5 µM [2, 9]: 1.4; fold induction at 1 µM [2, 9]: 0.913; fold induction at 5 µM [2, 9]: 0.899; fold induction at 10 µM [2, 9]: 0.872; fold induction at 20 µM [2, 9]: 0.967; fold induction at 40 µM [2, 9]: 0.945; fold induction at 5 µM ([3]; Mus musculus, C2C12, read-out: CMV-LACZ in Myotubes, signal relative to DMSO, 5 uM, C2C12 CMV-LacZ myotubes, fold relative to DMSO): 0.937; fold induction at 10 µM ([3]; Mus musculus, C2C12, read-out: CMV-LACZ in Myotubes, signal relative to DMSO, 10 uM, C2C12 CMV-LacZ myotubes, fold relative to DMSO): 0.8; fold induction at 20 µM ([3]; Mus musculus, C2C12, read-out: CMV-LACZ in Myotubes, signal relative to DMSO, 20 uM, C2C12 CMV-LacZ myotubes, fold relative to DMSO): 1.04; fold induction at 40 µM ([3]; Mus musculus, C2C12, read-out: CMV-LACZ in Myotubes, signal relative to DMSO, 40 uM, C2C12 CMV-LacZ myotubes, fold relative to DMSO): 1.05
6 | CN(C)C1(CN=Cc2cc(Cl)cc([N+](=O)[O-])c2O)CCCCC1 [MLS001179695-01] | – | – | – | – | – | – | – | – | – | – | – | – | 1.183 | 1.095 | 1.175 | 1.047 | Burkin Assay in Myoblasts, signal relative to DMSO ([1]; 0.5 uM): 1.033; Burkin Assay in Myoblasts, signal relative to DMSO ([1]; 1 uM): 0.9441; Burkin Assay in Myoblasts, signal relative to DMSO ([1]; 5 uM): 0.8752; Burkin Assay in Myoblasts, signal relative to DMSO ([1]; 10 uM): 0.9871; Burkin Assay in Myoblasts, signal relative to DMSO ([1]; 20 uM): 0.8923; Burkin Assay in Myoblasts, signal relative to DMSO ([1]; 40 uM): 0.8068; Burkin Assay in Myotubes, α7 integrin LacZ reporter signal relative to DMSO ([2]; 0.5 uM): 1.053; Burkin Assay in Myotubes, α7 integrin LacZ reporter signal relative to DMSO ([2]; 1 uM): 0.949; Burkin Assay in Myotubes, α7 integrin LacZ reporter signal relative to DMSO ([2]; 5 uM): 1.199; Burkin Assay in Myotubes, α7 integrin LacZ reporter signal relative to DMSO ([2]; 10 uM): 0.9922; Burkin Assay in Myotubes, α7 integrin LacZ reporter signal relative to DMSO ([2]; 20 uM): 0.9298; Burkin Assay in Myotubes, α7 integrin LacZ reporter signal relative to DMSO ([2]; 40 uM): 0.8546
7 | O=C(Nc1cc(Br)ccc1O)C1CC(c2ccccc2Cl)=NO1 (centres unmarked) [MLS001202627-01] | 1.172 | 1.081 | 0.9923 | 0.7739 | 0.5427 | 0.2179 | 0.9687 | 0.7692 | 1.025 | 0.8124 | 0.9394 | 0.2335 | – | – | – | – | CMV-LACZ in Myotubes (β-galactosidase activity relative to DMSO) ([3]; 5 uM): 0.9234; CMV-LACZ in Myotubes (β-galactosidase activity relative to DMSO) ([3]; 10 uM): 0.9555; CMV-LACZ in Myotubes (β-galactosidase activity relative to DMSO) ([3]; 20 uM): 0.9345; CMV-LACZ in Myotubes (β-galactosidase activity relative to DMSO) ([3]; 40 uM): 0.735
8 | CCc1ccc(Sc2cc(C(=O)NCCN3CCOCC3)c3ccccc3n2)cc1 [MLS000584511-01] | 0.5425 | 0.8885 | 1.033 | 1.087 | 1.05 | 1.072 | 1.0682 | 1.051 | 1.2189 | 1.163 | 1.004 | 1.041 | 0.8355 | 0.8735 | 0.871 | 0.7478 | –
